pIC50: −log10 of the molar value.
Columns and labels:
Human G9a = molecular target: T1, Human G9a (Homo sapiens, UniProt Q96KQ7); assay: G9a assay (3H-AdoMet filter-binding); type: biochemical; conditions: for pIC50: 10-dose IC50 mode, 2-fold serial dilution starting at 400 µM
T1 sequence (Q96KQ7 786-1210 limits assumed): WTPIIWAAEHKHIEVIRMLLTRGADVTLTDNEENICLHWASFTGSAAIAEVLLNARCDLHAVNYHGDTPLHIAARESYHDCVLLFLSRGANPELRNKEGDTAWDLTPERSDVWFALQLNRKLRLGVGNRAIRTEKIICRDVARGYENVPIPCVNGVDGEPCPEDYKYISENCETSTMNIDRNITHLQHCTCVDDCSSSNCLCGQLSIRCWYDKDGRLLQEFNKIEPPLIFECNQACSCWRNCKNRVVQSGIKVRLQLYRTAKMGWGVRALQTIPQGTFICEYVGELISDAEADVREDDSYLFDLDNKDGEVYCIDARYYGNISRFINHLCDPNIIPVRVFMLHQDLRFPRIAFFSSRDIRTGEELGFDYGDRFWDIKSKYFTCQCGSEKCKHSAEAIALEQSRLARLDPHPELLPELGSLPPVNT
Experimental: The reaction buffer was 50 mM Tris-HCl, pH 8.5, 50 mM NaCl, 5 mM MgCl2, 1 mM dithiothreitol (DTT), 1 mM PMSF, and 1% DMSO. Standard substrate concentrations were 5 µM biotinylated H3 (1–21) peptide (AnaSpec) substrate and 0.1 mM AdoMet. For control compound IC50 determinations, the test compounds were diluted in DMSO and then added to the enzyme/substrate mixture in nanoliter amounts by using an acoustic technology (Echo 500; Lab-cyte). The reaction was initiated by the addition of ^3H-AdoMet, and incubated at 30°C for 1 h. The reaction was detected by a filter-binding method. Data analysis was performed using Graph Pad Prism software for curve fits, and GraFit (Erithacus) for global fit of kinetic studies.

SMILES	inhibition at 0.78 µM (Human G9a)	inhibition at 1.56 µM (Human G9a)	inhibition at 3.1 µM (Human G9a)	inhibition at 6.2 µM (Human G9a)	inhibition at 25 µM (Human G9a)	inhibition at 50 µM (Human G9a)	inhibition at 100 µM (Human G9a)	inhibition at 200 µM (Human G9a)	inhibition at 400 µM (Human G9a)	pIC50 (Human G9a)	inhibition at 12.5 µM (Human G9a)	melting point
CN1CCCN(c2nc(NC3CCN(Cc4ccccc4)CC3)c3ccccc3n2)CC1 [Compound 4]	0%	0%	1.9%	0%	0%	7.9%	21.8%	16.4%	23.5%	< 3.40	–	–
c1ccc(CN2CCC(Nc3nc(N4CCCC4)nc4ccccc34)CC2)cc1 [Compound 10, N-(1-benzylpiperidin-4-yl)-2-(pyrrolidin-1-yl)quinazolin-4-amine]	0.3%	13.4%	14.7%	4.6%	13%	18.6%	20.8%	49.5%	37.8%	< 3.40	5.9%	112 to 115 °C
c1ccc(CN2CCC(Nc3nc(N4CCN(c5ccccn5)CC4)nc4ccccc34)CC2)cc1 [Compound 13]	9.4%	21.6%	11%	16.7%	11.1%	27.2%	24.9%	29.2%	14%	< 3.40	0%	–
c1ccc(CN2CCC(Nc3nc(N4CCN(c5ccccc5)CC4)nc4ccccc34)CC2)cc1 [Compound 14, N-(1-benzylpiperidin-4-yl)-2-(4-phenylpiperazin-1-yl)quinazolin-4-amine]	17.3%	13.5%	0%	4.2%	10.6%	16.5%	22.4%	23.8%	24%	< 3.40	21.3%	–

— publication PMC4014597 (PLoS ONE, 2014)
